Assay: xn = mol fraction of the nth substance listed
Conditions: 101 kPa

With `CNC(C)=O` + CCCC[n+]1ccn(C)c1.F[B-](F)(F)F the speed of sound (293.15 K, x2 = 0) was 1406.2 m/s, the viscosity (293.15 K, x2 = 0) was 5.56 mPa·s and the speed of sound (293.15 K, x2 = 0.2042) was 1479.3 m/s. For the same compound, the viscosity (293.15 K, x2 = 0.2042) was 8.7 mPa·s, the speed of sound (293.15 K, x2 = 0.27) was 1497.8 m/s and the viscosity (293.15 K, x2 = 0.27) was 10.6 mPa·s. It also gave a speed of sound (293.15 K, x2 = 0.3564) of 1517.3 m/s, a viscosity (293.15 K, x2 = 0.3564) of 14.28 mPa·s and a speed of sound (293.15 K, x2 = 0.4992) of 1540.3 m/s. The viscosity (293.15 K, x2 = 0.4992) was 24.5 mPa·s, the speed of sound (293.15 K, x2 = 0.5552) was 1546.9 m/s and the viscosity (293.15 K, x2 = 0.5552) was 30.2 mPa·s. The speed of sound (293.15 K, x2 = 0.6389) was 1555.3 m/s, the viscosity (293.15 K, x2 = 0.6389) was 41 mPa·s and the speed of sound (293.15 K, x2 = 0.714) was 1561.4 m/s. For the same compound, the viscosity (293.15 K, x2 = 0.714) was 53.3 mPa·s, the speed of sound (293.15 K, x2 = 0.8495) was 1569.8 m/s and the viscosity (293.15 K, x2 = 0.8495) was 82.6 mPa·s. The speed of sound (293.15 K, x2 = 0.9302) was 1573.9 m/s, the viscosity (293.15 K, x2 = 0.9302) was 104.9 mPa·s and the speed of sound (298.15 K, x2 = 0) was 1385.3 m/s. The viscosity (298.15 K, x2 = 0) was 4.77 mPa·s, the speed of sound (298.15 K, x2 = 0.1409) was 1440 m/s and the viscosity (298.15 K, x2 = 0.1409) was 6.18 mPa·s. For the same compound, the speed of sound (298.15 K, x2 = 0.27) was 1480.6 m/s, the viscosity (298.15 K, x2 = 0.27) was 8.7 mPa·s and the speed of sound (298.15 K, x2 = 0.3564) was 1501.1 m/s. The viscosity (298.15 K, x2 = 0.3564) was 11.64 mPa·s, the speed of sound (298.15 K, x2 = 0.4343) was 1516 m/s and the viscosity (298.15 K, x2 = 0.4343) was 15.46 mPa·s. For the same compound, the speed of sound (298.15 K, x2 = 0.5552) was 1532.7 m/s, the viscosity (298.15 K, x2 = 0.5552) was 24.2 mPa·s and the speed of sound (298.15 K, x2 = 0.6389) was 1542 m/s. The viscosity (298.15 K, x2 = 0.6389) was 32.6 mPa·s, the speed of sound (298.15 K, x2 = 0.714) was 1548.6 m/s and the viscosity (298.15 K, x2 = 0.714) was 42.1 mPa·s. It also gave a speed of sound (298.15 K, x2 = 0.8495) of 1558 m/s, a viscosity (298.15 K, x2 = 0.8495) of 64.5 mPa·s and a speed of sound (298.15 K, x2 = 0.9302) of 1562.5 m/s. The viscosity (298.15 K, x2 = 0.9302) was 81.6 mPa·s, the speed of sound (303.15 K, x2 = 0) was 1366.3 m/s and the viscosity (303.15 K, x2 = 0) was 4.09 mPa·s. The speed of sound (303.15 K, x2 = 0.0711) was 1395.9 m/s, the viscosity (303.15 K, x2 = 0.0711) was 4.92 mPa·s and the speed of sound (303.15 K, x2 = 0.2042) was 1444.8 m/s. For the same compound, the viscosity (303.15 K, x2 = 0.2042) was 6.38 mPa·s, the speed of sound (303.15 K, x2 = 0.27) was 1464.5 m/s and the viscosity (303.15 K, x2 = 0.27) was 7.32 mPa·s. It also gave a speed of sound (303.15 K, x2 = 0.3564) of 1486 m/s, a viscosity (303.15 K, x2 = 0.3564) of 9.13 mPa·s and a speed of sound (303.15 K, x2 = 0.4343) of 1501.4 m/s. For the same compound, the viscosity (303.15 K, x2 = 0.4343) was 11.57 mPa·s, the speed of sound (303.15 K, x2 = 0.4992) was 1511.8 m/s and the viscosity (303.15 K, x2 = 0.4992) was 14.39 mPa·s. It also gave a speed of sound (303.15 K, x2 = 0.5552) of 1519.2 m/s, a viscosity (303.15 K, x2 = 0.5552) of 17.5 mPa·s and a speed of sound (303.15 K, x2 = 0.6389) of 1529.2 m/s. It also gave a viscosity (303.15 K, x2 = 0.6389) of 23.6 mPa·s, a speed of sound (303.15 K, x2 = 0.714) of 1536.2 m/s and a viscosity (303.15 K, x2 = 0.714) of 30.7 mPa·s. The speed of sound (303.15 K, x2 = 0.7774) was 1541.2 m/s, the viscosity (303.15 K, x2 = 0.7774) was 38.1 mPa·s and the speed of sound (303.15 K, x2 = 0.8495) was 1546.2 m/s. The viscosity (303.15 K, x2 = 0.8495) was 48.2 mPa·s, the speed of sound (303.15 K, x2 = 0.9302) was 1551 m/s and the viscosity (303.15 K, x2 = 0.9302) was 62 mPa·s. For the same compound, the speed of sound (308.15 K, x2 = 0.0711) was 1380.7 m/s, the viscosity (308.15 K, x2 = 0.0711) was 4.25 mPa·s and the speed of sound (308.15 K, x2 = 0.1409) was 1408.3 m/s. It also gave a viscosity (308.15 K, x2 = 0.1409) of 4.86 mPa·s, a speed of sound (308.15 K, x2 = 0.2042) of 1430.4 m/s and a viscosity (308.15 K, x2 = 0.2042) of 5.48 mPa·s. The speed of sound (308.15 K, x2 = 0.27) was 1450.3 m/s, the viscosity (308.15 K, x2 = 0.27) was 6.31 mPa·s and the speed of sound (308.15 K, x2 = 0.3564) was 1472.3 m/s. The viscosity (308.15 K, x2 = 0.3564) was 7.85 mPa·s, the speed of sound (308.15 K, x2 = 0.4343) was 1488.2 m/s and the viscosity (308.15 K, x2 = 0.4343) was 9.86 mPa·s. It also gave a speed of sound (308.15 K, x2 = 0.4992) of 1498.9 m/s, a viscosity (308.15 K, x2 = 0.4992) of 12.11 mPa·s and a speed of sound (308.15 K, x2 = 0.5552) of 1506.5 m/s. The viscosity (308.15 K, x2 = 0.5552) was 14.56 mPa·s, the speed of sound (308.15 K, x2 = 0.6389) was 1516.8 m/s and the viscosity (308.15 K, x2 = 0.6389) was 19.2 mPa·s. For the same compound, the speed of sound (308.15 K, x2 = 0.7774) was 1529.2 m/s, the viscosity (308.15 K, x2 = 0.7774) was 30.2 mPa·s and the speed of sound (308.15 K, x2 = 0.8495) was 1534.1 m/s. The viscosity (308.15 K, x2 = 0.8495) was 37.8 mPa·s, the speed of sound (308.15 K, x2 = 0.9302) was 1539.1 m/s and the viscosity (308.15 K, x2 = 0.9302) was 48 mPa·s. For the same compound, the speed of sound (313.15 K, x2 = 0) was 1336.4 m/s, the viscosity (313.15 K, x2 = 0) was 3.08 mPa·s and the speed of sound (313.15 K, x2 = 0.0711) was 1367.7 m/s. It also gave a viscosity (313.15 K, x2 = 0.0711) of 3.76 mPa·s, a speed of sound (313.15 K, x2 = 0.1409) of 1395.4 m/s and a viscosity (313.15 K, x2 = 0.1409) of 4.34 mPa·s. For the same compound, the speed of sound (313.15 K, x2 = 0.2042) was 1417.6 m/s, the viscosity (313.15 K, x2 = 0.2042) was 4.86 mPa·s and the speed of sound (313.15 K, x2 = 0.27) was 1437.6 m/s. The viscosity (313.15 K, x2 = 0.27) was 5.5 mPa·s, the speed of sound (313.15 K, x2 = 0.3564) was 1459.7 m/s and the viscosity (313.15 K, x2 = 0.3564) was 6.64 mPa·s. The speed of sound (313.15 K, x2 = 0.4343) was 1475.8 m/s, the viscosity (313.15 K, x2 = 0.4343) was 8.12 mPa·s and the speed of sound (313.15 K, x2 = 0.5552) was 1494.8 m/s. It also gave a viscosity (313.15 K, x2 = 0.5552) of 11.64 mPa·s, a speed of sound (313.15 K, x2 = 0.6389) of 1505 m/s and a viscosity (313.15 K, x2 = 0.6389) of 15.21 mPa·s. It also gave a speed of sound (313.15 K, x2 = 0.714) of 1512 m/s, a viscosity (313.15 K, x2 = 0.714) of 19.4 mPa·s and a speed of sound (313.15 K, x2 = 0.7774) of 1517.5 m/s. The viscosity (313.15 K, x2 = 0.7774) was 23.7 mPa·s, the speed of sound (313.15 K, x2 = 0.8495) was 1522.3 m/s and the viscosity (313.15 K, x2 = 0.8495) was 29.7 mPa·s. The speed of sound (313.15 K, x2 = 0.9302) was 1527 m/s, the viscosity (313.15 K, x2 = 0.9302) was 37.8 mPa·s and the speed of sound (318.15 K, x2 = 0) was 1325.2 m/s. For the same compound, the viscosity (318.15 K, x2 = 0) was 2.76 mPa·s, the speed of sound (318.15 K, x2 = 0.2042) was 1406.7 m/s and the viscosity (318.15 K, x2 = 0.2042) was 4.13 mPa·s. For the same compound, the speed of sound (318.15 K, x2 = 0.27) was 1426.7 m/s, the viscosity (318.15 K, x2 = 0.27) was 4.62 mPa·s and the speed of sound (318.15 K, x2 = 0.3564) was 1448.6 m/s. The viscosity (318.15 K, x2 = 0.3564) was 5.5 mPa·s, the speed of sound (318.15 K, x2 = 0.4343) was 1464.7 m/s and the viscosity (318.15 K, x2 = 0.4343) was 6.68 mPa·s. For the same compound, the speed of sound (318.15 K, x2 = 0.4992) was 1476 m/s, the viscosity (318.15 K, x2 = 0.4992) was 8.04 mPa·s and the speed of sound (318.15 K, x2 = 0.5552) was 1484.1 m/s. For the same compound, the viscosity (318.15 K, x2 = 0.5552) was 9.55 mPa·s, the speed of sound (318.15 K, x2 = 0.6389) was 1493.8 m/s and the viscosity (318.15 K, x2 = 0.6389) was 12.51 mPa·s. The speed of sound (318.15 K, x2 = 0.714) was 1501 m/s, the viscosity (318.15 K, x2 = 0.714) was 16 mPa·s and the speed of sound (318.15 K, x2 = 0.7774) was 1506.1 m/s. The viscosity (318.15 K, x2 = 0.7774) was 19.7 mPa·s, the speed of sound (318.15 K, x2 = 0.8495) was 1510.8 m/s and the viscosity (318.15 K, x2 = 0.8495) was 24.7 mPa·s. For the same compound, the speed of sound (318.15 K, x2 = 0.9302) was 1514.9 m/s and the viscosity (318.15 K, x2 = 0.9302) was 31.6 mPa·s.

In the case of `CCCC[n+]1ccn(C)c1.F[B-](F)(F)F` + CNC(C)=O, the speed of sound (298.15 K, x1 = 1) is reported as 1565.8 m/s, the viscosity (298.15 K, x1 = 1) is reported as 98.9 mPa·s and the speed of sound (303.15 K, x1 = 1) is reported as 1554.5 m/s. For the same compound, the viscosity (303.15 K, x1 = 1) was 76.3 mPa·s, the speed of sound (308.15 K, x1 = 1) was 1542.7 m/s and the viscosity (308.15 K, x1 = 1) was 58.4 mPa·s. It also gave a speed of sound (313.15 K, x1 = 1) of 1530.5 m/s, a viscosity (313.15 K, x1 = 1) of 46.2 mPa·s and a speed of sound (318.15 K, x1 = 1) of 1518 m/s. The viscosity (318.15 K, x1 = 1) was 38.7 mPa·s.

— a compilation of properties of binary mixtures (doi:10.1021/acs.jced.9b00875)
